# Experimental data published in patent US20150265682A1, “THERAPEUTIC METHODS AND COMPOSITIONS FOR TREATING DIABETES” (Orient Europharma Co., Ltd., priority 2014, published 2015).
# Tests used:
# [1] = tested on: normal mice, mice with type 1 DM, mice with type 2 DM; test: Plasma glucose after single intraperitoneal borapetoside A (acute study); format: in vivo, ICR mice; conditions: 60 min; for dose giving significant decrease of plasma glucose level: single i.p.
# Method: The 4-week-old male ICR mice were purchased from the Animal Center of the College of Medicine, National Taiwan University (Taipei, Taiwan) with delicate humane care. This animal study was conducted by following the University ethical guidelines and the ‘Guide for the Care and Use of Laboratory Animals’ published by the US National Institutes of Health (NIH publication no. 85-23, revised 1996). The animal experiments were approved by the Institutional Animal Care and Use Committee (IACUC) of the National Taiwan University (IACUC No. 20110073). Animals were housed in a room at the constant temperature, 22±1° C., with 12 hours light and dark cycles.
# After three days of acclimatization, the mice had free access to a standard rodent chow (normal mice), a standard rodent chow after single 250 mgkg^−1 streptozotocin (STZ) intraperitoneal injection (T1DM mice), and a fat-rich chow diet and fructose-sweetened water (T2DM mice) for 4 weeks. The induction of Type 1 DM was assessed and confirmed when the mice had plasma glucose levels ≧350 mgdL^−1, accompanied with polyuria, hyperphagia and decreased body weight. The induction Type 2 DM in the mice was assessed by measuring fasting plasma glucose levels and confirmed when plasma glucose level was ≧150 mgdL^−1 after the 4-week induction. The animals were assigned randomly into three groups, with seven animals in each group. In group I, the mice were treated with vehicle, 2% DMSO in normal saline, as the negative control. In group II, the mice were intraperitoneally treated with borapetoside A (0.1-10 mgkg^−1). […]
# Blood samples were collected from the orbital vascular plexus of the mice under anesthesia. […] The plasma glucose concentration was measured by Glucose Kit Reagent (Biosystems S. A., Barcelona, Spain) following the manufacturer's instructions, and the insulin levels were estimated using mouse insulin ELISA kit (Mercodia AB, Uppsala, Sweden).
# [2] = tested on: human hepatocellular carcinoma cell line, Hep3B; test: Glycogen content assay in Hep3B cells; format: cell-based; conditions: 30 minutes
# Method: The C2C12 skeletal muscle cells were cultured in Dulbecco's modified Eagle's medium (DMEM; Gibco/Invitrogen, Carlsbad, Calif.), and the human hepatocellular carcinoma cell line, Hep3B, was cultured in Roswell Park Memorial Institute medium 1640 (RPMI 1640 medium; Gibco/Invitrogen, Carlsbad, Calif.). Cells were cultured at 37° C. in the humidified incubator supplied with 5% CO2. Culture mediums were supplemented with 4.5 mgmL^−1 glucose, penicillin 100 IUmL^−1, streptomycin 100 μgmL^−1 and 10% fetal bovine serum (Gibco/Invitrogen, Carlsbad, Calif.). Only C2C12 cells were then switched to 2% horse serum for 3 days after reaching the 70% confluence. Myotubes formation was achieved after 4 days of incubation, and the cells were used for subsequent experiments. Culture mediums were replaced by serum free DMEM or RPMI for 24 h before experiments (see e.g., procedure described in Sultan et al., 2006).
# C2C12 and Hep3B cells were treated with 1 nM insulin, 100 μM metformin, and the assigned concentration of borapetoside A for 30 minutes. To develop the insulin resistance state of cells, C2C12 cells were incubated with IL-6 at 20 ngmL^−1 for 1 hour. Later, the cells were treated with 1 nM insulin, 100 μM metformin, and the assigned concentration of borapetoside A for 30 minutes. After the assigned treatment, cells were washed twice with phosphate buffered saline (PBS). Glycogen content was measured as previously described, with some modifications (see e.g., Savage et al., 2008). The protein concentrations of the cell lysates were determined by using Pierce BCA Protein Assay Kit (Thermo-Scientific, Rockford, Ill.). The glycogen content of each sample was normalized by total protein.
# [3] = tested on: IR, Akt and GLUT2 in liver of T1DM mice; test: Western blot of IR-related signaling mediators in liver after 7-day borapetoside C, alone or with insulin; format: in vivo, ICR mice
# Method: T1DM mice were induced by a known method. In brief, an intraperitoneal injection of streptozotocin (STZ; Sigma Chemical Co.; St. Louis, Mo.) at 150 mg/kg was performed in mice that were fasted for 48 h. The induction of T1DM was assessed and confirmed when the mice had plasma glucose levels ≧350 mg/dL, accompanied with polyuria, hyperphagia and decreased body weight. The control mice group received an injection of vehicle and then carried out for 4 weeks. T2DM mice were induced by maintaining on a fat-rich chow diet and fructose-sweetened water for 4 weeks from the age of 4-5 weeks according to previous methods. The induction T2DM mice were assessed by measuring fasting plasma glucose levels and confirmed when plasma glucose level was ≧150 mg/dL after a 4-week induction.
# After treatment, the mice were sacrificed by cervical dislocation under anesthesia.
# The liver was immediately frozen in liquid nitrogen. The liver tissue was preserved at −80° C. before they were used for further assays.
# Tissues were homogenized in T-PER® Tissue Protein Extraction Reagent (Pierce Biotechnology, Rockford, Ill.) with Halt™ Protease Inhibitor Single-Use Cocktail (Pierce Biotechnology, Rockford, Ill.). Liver homogenates were prepared by mechanical homogenization (Polytron PT3100, Luzernerstrasse, Switzerland). After centrifuging the homogenates at 10,000 g for 30 min, the supernatants were collected and frozen at −80° C. for further use. The protein concentrations were determined by using a BCA Protein Assay Kit (Pierce Biotechnology, Rockford, Ill.). For western blot analysis, about 60 μg of protein preparations were applied on 10% sodium dodecyl sulfate-polyacrylamide gel electrophoresis and then transferred to polyvinylidene difluoride membranes (Millipore, Billerica, Mass.). The membranes were blocked with 5% (w/v) non-fat dry milk in phosphate buffered saline (PBS) containing 0.1% Tween 20 (PBS-T). After blocking, the blotted membrane was incubated with anti-phospho-insulin receptor β (IRβ) (Tyr^1345), phospho-Akt (Ser^473) (Cell Signaling Technology, Beverly, Mass.), anti-IRβ, Akt, β-Actin (Santa Cruz Biotechnology, Santa Cruz, Calif.), and anti-GLUT2 antibodies (Abcam, Cambridge, UK) in presence of 3% bovine serum albumin (BSA) in PBS-T buffer. Following the incubation, the membranes were washed 3 times with PBS-T for 15 min each and then incubated with the appropriate peroxidase-conjugated secondary antibodies (Santa Cruz. Biotechnology, USA) in PBS-T. After removal of the secondary antibody, blots were washed and developed using the enhanced chemiluminescenece (ECL) western blotting system (Millipore, Billerica, Mass.). The density of the protein bands were quantified using ImageQuant.
# [4] = borapetoside C 0.1 mg/kg twice daily, alone or with insulin 1.0 IU/kg twice daily
# [5] = borapetoside C 5.0 mg/kg vs insulin 0.5 IU/kg twice daily
Structure (SMILES),dose giving significant decrease of plasma glucose level ([1]; mice with type 2 DM),dose giving significant decrease of plasma glucose level ([1]; normal mice),"plasma glucose level ([1]; normal, type 1 DM and type 2 DM mice, 0.1-10.0 mgkg^−1 single i.p.)",fold increase of glycogen content ([2]; 10^−5 mol/L),fold increase of glycogen content ([2]; 10^−6 mol/L),fold increase of glycogen content ([2]; 10^−7 mol/L),expression of GLUT2 in liver ([3]; 5.0 mg/kg twice daily),level of phosphorylated Akt in liver ([3]; 5.0 mg/kg twice daily),level of phosphorylated IR in liver ([3]; 5.0 mg/kg twice daily),"GLUT2 in liver vs vehicle-treated [3, 4]","serine phosphorylation of Akt in liver vs vehicle-treated [3, 4]","tyrosine phosphorylation of IR in liver vs vehicle-treated [3, 4]","phosphorylation of Akt and GLUT2 expression compared with the effect of insulin [3, 5]","phosphorylation of IR compared with the effect of insulin [3, 5]"
"C[C@@]12C[C@@H](c3ccoc3)OC(=O)[C@@H]1C[C@@H]1OC(=O)[C@@]3(O)[C@@H](O[C@@H]4O[C@H](CO)[C@@H](O)[C@H](O)[C@H]4O)CC[C@@H]2[C@@]13C [Borapetoside A, borapetoside A]",higher than 0.3 mgkg^−1,≥ 1 mgkg^−1,lowered the plasma glucose level,1.54±0.11 fold,1.39±0.12 fold,1.46±0.05 fold,–,–,–,–,–,–,–,–
"COC(=O)C1=CCC[C@H]2[C@]3(C)C[C@@H](c4ccoc4)OC(=O)[C@@H]3C[C@@H](O[C@@H]3O[C@H](CO)[C@@H](O)[C@H](O)[C@H]3O)[C@@]12C [Borapetoside C, borapetoside C]",–,–,–,–,–,–,increased,increased,increased,not significantly increased,not significantly increased,not significantly increased,less phosphorylation of Akt and GLUT2 expression,more phosphorylation of IR
